Consider 7 compounds from patent US10351847B2, “Identification and display of peptide ligands” (OXFORD UNIVERSITY INNOVATION LIMITED, priority 2013, dated 2019).

One experiment relates to HIV-1 JRFL gp120. The experiment can be described thus: ELISA for binding between predicted peptides and gp120. Conditions: compared to negative control HA2 (hemagglutinin-binding peptide).
The subject of experiment [1] is HIV-1 (HIV BAL, IIIB, clade C).
For another experiment, the system named is purified gp120. Nature of the experiment: Surface plasmon resonance (BIAcore) KD of peptides to gp120. In kind it is binding, HIV-1. The protocol:
Immobilisation of purified gp120 protein (1 mg/ml) and purified HLA-A2 heavy chain (reference control, 1 mg/ml) onto the surface of individual flow-cells (Fc1 and Fc2 respectively) of CM5 sensor chip (GE Healthcare) was performed under conditions of 20 μl/min flow rate and 25° C., with HBS-EP buffer (0.01 M HEPES pH 7.4, 0.15 M NaCl, 0.005% v/v Surfactant P20; GE Healthcare) as the running buffer. After initiating the system, 100 μl 0.05M solution of EDC [1-ethyl-3-(3-dimethylaminopropyl) carbodiimide]/NHS (N-Hydroxysuccinimide) at 1:1 ratio was injected to activate the dextran matrix of the sensor chip surface. After immobilisation, 150 μl of 1M ethanolamine hydrochloride was injected to deactivate the unreacted carboxylmethyl groups on the dextran matrix. Finally, 30 μl of Glycine pH2.5 was injected to remove any non-covalently bound proteins.
The affinity analyses of the interaction between 9-amino-acid predicted peptides and purified gp120 were performed using the BIAcore T200 (GE Healthcare), under conditions of 10 μl/min flow rate and 25° C. and using HBS-EP buffer (0.01 M HEPES pH 7.4, 0.15 M NaCl, 0.005% v/v Surfactant P20; GE Healthcare) as the running buffer. Prior to experiment, the 9-amino-acid peptides were diluted to 1 mg/ml with HBS-EP buffer. A 2-fold serial dilution of totally 8 concentrations was used to pass through the […]. The data were analysed using Microcal Origin version 7.5 (Microcal Software Limited).
In order to obtain quantitative measurements of binding reactions between predicted peptides and gp120, surface plasmon resonance (BIAcore) was used to measure the equilibrium dissociation constant KD of the predicted peptides and gp120. […] Since the KD to gp120 is relative to different analytes, purified protein HLA-A*0201 heavy chain was used as a reference control to measure the relative binding affinity of peptides to gp120. Purified gp120 and HLA-A*0201 were immobilised on chips, and the peptides were passed through both flow cells at a constant rate of 10 μl/min. […] The BIcore experiment acted as a second confirmation that the randomised peptide library had successfully captured peptides which bind to gp120 in a single round of selection, and that the sequence information coding the binding peptides was correctly preserved and sequenced.
In general terms: In SPR one partner is held on a chip, and binding of the other changes the refractive index at the surface.

The subject of a further experiment is HIV-1 BaL. Nature of the experiment: HIV-1 inhibition assay (intracellular p24 in CD4+ cells of PBMC). Conditions: for inhibition of HIV-1 BaL infection: without streptavidin conjugation.
The subject of experiment [2] is JRFL gp120 / recombinant CCR5. In kind it is binding, HIV-1. Conditions: 125 ng peptide.
The test system of the next experiment is HIV-1 IIIB. The experiment can be described thus: HIV-1 inhibition assay (intracellular p24 in CD4+ cells of PBMC). It is filed as cell-based. Particulars: CXCR4 tropic virus.

“Also recorded” adds a separate entry of the source. Like-named read-outs stand apart in the source and are kept apart here. Ends that are not written are not given here. GS linker = not defined here

Take LLALSAYMV [GP11]: the “binding to gp120 on ELISA (absorbance)” value in the experiment on HIV-1 JRFL gp120 is on record as “significantly higher binding; also recorded: higher absorbance”. Besides, the “cross clade HIV-1 inhibitory activity” value in experiment [1] is “exhibited cross clade HIV-1 inhibitory activity”. Besides, in the experiment with purified gp120, the “affinity to gp120 (ranking)” value is given as “highest affinity”.
In the case of `CC(C)C[C@H](NC(=O)[C@H](CC(C)C)NC(=O)[C@H](CC(N)=O)NC(=O)[C@H](CC(C)C)NC(=O)[C@H](CCCNC(=N)N)NC(=O)[C@H](CCCNC(=N)N)NC(=O)[C@H](CS)NC(=O)[C@H](Cc1c[nH]c2ccccc12)NC(=O)[C@@H](N)CC(C)C)C(=O)NCC(=O)NCC(=O)NCC(=O)NCC(=O)NCC(=O)NCC(=O)N[C@@H](CO)C(=O)NCC(=O)NCC(=O)N[C@@H](CO)C(=O)NCC(=O)N[C@@H](CCCCNC(=O)CCCC[C@@H]1SC[C@@H]2NC(=O)N[C@@H]21)C(=O)O` [GP16], the “reduction in absorbance of peptide binding to gp120” value in the experiment with gp120 (gp120 blocked with any of the three antibodies (V3, VRC01, F105)) is “no reduction”. Further, in the experiment with HIV-1 JRFL gp120, the “binding to gp120 on ELISA (absorbance)” value is on record as “significantly higher binding; also recorded: higher absorbance; also recorded: highest binding affinity”. For the same compound, the “HIV-1 inhibition (in words)” value in experiment [1] is reported as “greatest inhibition”. The “cross clade HIV-1 inhibitory activity” value in experiment [1] is “exhibited cross clade HIV-1 inhibitory activity”. For the same compound, the “inhibition of HIV-1 BaL infection” value in the experiment with HIV-1 BaL (50 μM) is on record as “less than 1%”; with HIV-1 BaL (100 μM), “less than 1%”; in the experiment with HIV-1 BaL (250 μM), 50%. Besides, the “affinity to gp120 (ranking)” value in the experiment with purified gp120 is recorded as “highest affinity”.
In turn, enfuvirtide registered a viral inhibition in experiment [1] (positive control, 50 μM) of 91.1%.
Consider “SYSFCPRRQ (also: GS linker and biotinylated lysine, end not given here) [GP3]”, for which, in the experiment on gp120 (gp120 pre-blocked with V3 antibody), the “reduction in absorbance of peptide binding to gp120” value is “significant reduction”. Further, in experiment [2], the “reduction in absorbance (recombinant CCR5 binding to gp120)” value came out at 65.8%. Besides, in the experiment with HIV-1 JRFL gp120, the “binding to gp120 on ELISA (absorbance)” value was “significantly higher binding; also recorded: higher absorbance”. For the same compound, the inhibition of replication entry was “no inhibition” with HIV-1 IIIB and “exhibited inhibition” with HIV-1 BaL (CCR5 tropic virus). In experiment [1], the “HIV-1 inhibition (in words)” value is “greatest inhibition”. In experiment [1], the “cross clade HIV-1 inhibitory activity” value was “exhibited cross clade HIV-1 inhibitory activity”. Also, the “inhibition of HIV-1 BaL infection” value is reported as “no inhibitory effect” in the experiment on HIV-1 BaL (50 μM), 34.5% with HIV-1 BaL (100 μM) and 54.7% in the experiment with HIV-1 BaL (250 μM). Moreover, the “affinity to gp120 (ranking)” value with purified gp120 is on record as “highest affinity”.
Take “RRRNVPLIL (RRRNVPLIL-{GS linker-K(biotin)}; reading uncertain) [GP2]”: the “binding to gp120 on ELISA (absorbance)” value with HIV-1 JRFL gp120 is given as “significantly higher binding; also recorded: higher absorbance”.
Regarding SSCSVRSSCRLYYSC [GP21], the “binding to gp120 on ELISA (absorbance)” value in the experiment with HIV-1 JRFL gp120 is “did not show any binding”. Moreover, the “HIV-1 inhibition (in words)” value in experiment [1] is on record as “did not show any HIV-1 inhibition”.
For LVLLSSASS [GP5], in the experiment on purified gp120, the “affinity to gp120 (ranking)” value is “highest affinity”.
